target: T1, HCV polymerase (Hepatitis C virus genotype 1b, UniProt P26663); assay: HCV polymerase primer/template-directed transcription assay (32P-GTP incorporation, filter binding); type: biochemical; conditions: recombinant HCV polymerase; 30 minutes at 30° C.; concentration giving 50% inhibition of polymerase-directed transcription; read-out: IC50
T1 construct: 2.5 pmoles (0.15 μg) HCV polymerase protein in a final volume of 75 μL
Procedure, shortened: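 Recombinant genotype 1b polymerase (30 nM) extended biotin-dG12 primer on poly(rC)300 template with 1 μM GTP plus α-32P-GTP, pH 7.2, 10 mM MgCl2, 30 min at 30° C, 1% DMSO final. Products captured on DE filters and counted. IC50 fitted from triplicate cpm, with a tight-binding correction applied below 200 nM.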

T1 sequence (P26663 2420-3010): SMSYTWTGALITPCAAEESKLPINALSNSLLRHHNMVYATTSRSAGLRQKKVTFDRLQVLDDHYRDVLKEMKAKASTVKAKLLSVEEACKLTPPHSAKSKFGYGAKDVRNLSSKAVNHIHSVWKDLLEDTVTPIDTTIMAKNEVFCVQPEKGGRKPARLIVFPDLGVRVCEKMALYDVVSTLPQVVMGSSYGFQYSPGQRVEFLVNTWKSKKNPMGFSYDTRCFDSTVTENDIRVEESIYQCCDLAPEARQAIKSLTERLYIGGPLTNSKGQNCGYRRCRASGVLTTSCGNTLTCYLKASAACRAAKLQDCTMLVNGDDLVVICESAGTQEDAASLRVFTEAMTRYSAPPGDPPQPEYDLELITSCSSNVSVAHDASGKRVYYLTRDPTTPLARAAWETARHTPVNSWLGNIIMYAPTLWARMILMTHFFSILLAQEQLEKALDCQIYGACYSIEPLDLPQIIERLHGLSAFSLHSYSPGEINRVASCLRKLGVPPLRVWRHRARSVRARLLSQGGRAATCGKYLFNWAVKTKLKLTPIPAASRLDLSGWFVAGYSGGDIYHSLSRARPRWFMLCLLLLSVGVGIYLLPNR

Point of comparison: `Cc1nc(CC2=C(O)CC(CCc3ccc(C(F)F)c(F)c3)(C3CCCC3)OC2=O)n(C)n1` (stereo not drawn) [B(69), 6-Cyclopentyl-6-{2-[4-(difluoromethyl)-3-fluorophenyl]ethyl}-3-[(1,3-dimethyl-1H-1,2,4-triazol-5-yl)methyl]-4-hydroxy-5,6-dihydro-2H-pyran-2-one], IC50 800 nM. Against it:
- CCc1noc(CC2=C(O)CC(CCc3cc(Cl)c(OC)cc3OC)(C3CCCC3)OC2=O)n1 (stereo not drawn) [B(62), 6-[2-(5-Chloro-2,4-dimethoxyphenyl)ethyl]-6-cyclopentyl-3-[(3-ethyl-1,2,4-oxadiazol-5-yl)methyl]-4-hydroxy-5,6-dihydro-2H-pyran-2-one] — 4-fold lower, 200 nM
- COc1cc(OC)c(CCC2(C3CCCC3)CC(O)=C(Cc3nc4cc(OC)c(OC)cc4c(=O)[nH]3)C(=O)O2)cc1Cl (stereo not drawn) [B(63), 2-({6-[2-(5-Chloro-2,4-dimethoxyphenyl)ethyl]-6-cyclopentyl-4-hydroxy-2-oxo-5,6-dihydro-2H-pyran-3-yl}methyl)-6,7-dimethoxyquinazolin-4(3H)-one] — 50-fold lower, 16 nM
- COc1cc(OC)c(CCC2(C3CCCC3)CC(O)=C(Cc3nc4ccsc4c(=O)[nH]3)C(=O)O2)cc1Cl (stereo not drawn) [B(64), 2-({6-[2-(5-Chloro-2,4-dimethoxyphenyl)ethyl]-6-cyclopentyl-4-hydroxy-2-oxo-5,6-dihydro-2H-pyran-3-yl}methyl)thieno[3,2-d]pyrimidin-4(3H)-one] — 24-fold lower, 33 nM
- COc1cc(OC)c(CCC2(C3CCCC3)CC(O)=C(Cc3nc4ccccc4c(=O)[nH]3)C(=O)O2)cc1Cl (stereo not drawn) [B(65), 2-({6-[2-(5-Chloro-2,4-dimethoxyphenyl)ethyl]-6-cyclopentyl-4-hydroxy-2-oxo-5,6-dihydro-2H-pyran-3-yl}methyl)quinazolin-4(3H)-one] — 7.3-fold lower, 110 nM
- COc1ccc(CCC2(C3CCCC3)CC(O)=C(Cc3cc(=O)[nH]c(-c4ccccn4)n3)C(=O)O2)cc1 (stereo not drawn) [B(66), 6-({6-Cyclopentyl-4-hydroxy-6-[2-(4-methoxyphenyl)ethyl]-2-oxo-5,6-dihydro-2H-pyran-3-yl}methyl)-2-pyridin-2-ylpyrimidin-4(3H)-one] — 3.6-fold lower, 220 nM
- O=C1OC(CCc2ccc(OCc3ccccc3)cc2)(C2CCCC2)CC(O)=C1Cc1cc(=O)[nH]c(C2CC2)n1 (stereo not drawn) [B(67), 6-[(6-{2-[4-(Benzyloxy)phenyl]ethyl}-6-cyclopentyl-4-hydroxy-2-oxo-5,6-dihydro-2H-pyran-3-yl)methyl]-2-cyclopropylpyrimidin-4(3H)-one] — 4-fold higher, 3200 nM
- COc1cc(OC)c(CCC2(C3CCCC3)CC(O)=C(Cc3nc(C)cc(=O)[nH]3)C(=O)O2)cc1Cl (stereo not drawn) [B(68), 2-({6-[2-(5-Chloro-2,4-dimethoxyphenyl)ethyl]-6-cyclopentyl-4-hydroxy-2-oxo-5,6-dihydro-2H-pyran-3-yl}methyl)-6-methylpyrimidin-4(3H)-one] — 8-fold lower, 100 nM
- Cc1nc(CC2=C(O)CC(CCc3ccc(OCC4CC4)c(Cl)c3)(C3CCCC3)OC2=O)n(C)n1 (stereo not drawn) [B(70), 6-{2-[3-Chloro-4-(cyclopropylmethoxy)phenyl]ethyl}-6-cyclopentyl-3-[(1.3-dimethyl-1H-1,2,4-triazol-5-yl)methyl]-4-hydroxy-5,6-dihydro-2H-pyran-2-one] — 3.3-fold lower, 240 nM
- COc1cc(OC)c(CCC2(C3CCCC3)CC(O)=C(Cc3nc(C)nn3C)C(=O)O2)cc1Cl (stereo not drawn) [B(71), 6-[2-(5-Chloro-2,4-dimethoxyphenyl)ethyl]-6-cyclopentyl-3-[(1,3-dimethyl-1H-1,2,4-triazol-5-yl)methyl]-4-hydroxy-5,6-dihydro-2H-pyran-2-one] — 10-fold lower, 80 nM
- COC(=O)Nc1cc(CC2=C(O)CC(CCc3ccc(C(F)F)c(F)c3)(C3CCCC3)OC2=O)on1 (stereo not drawn) [B(72), Methyl 5-[(6-cyclopentyl-6-{2-[4-(difluoromethyl)-3-fluorophenyl]ethyl}-4-hydroxy-2-oxo-5,6-dihydro-2H-pyran-3-yl)methyl]isoxazol-3-ylcarbamate] — 1.8-fold higher, 1400 nM
- COc1cc(OC)c(CCC2(C3CCCC3)CC(O)=C(Cc3nc(-c4ccccn4)no3)C(=O)O2)cc1Cl (stereo not drawn) [B(73), 6-[2-(5-Chloro-2,4-dimethoxyphenyl)ethyl]-6-cyclopentyl-4-hydroxy-3-[(3-pyridin-2-yl-1,2,4-oxadiazol-5-yl)methyl]-5,6-dihydro-2H-pyran-2-one] — 13-fold lower, 62 nM
- Cc1nc(CC2=C(O)CC(CCc3ccc(OC(F)F)c(Cl)c3)(C3CCCC3)OC2=O)n(C)n1 (stereo not drawn) [B(74), 6-{2-[3-Chloro-4-(difluoromethoxy)phenyl]ethyl}-6-cyclopentyl-3-[(1,3-dimethyl-1H-1,2,4-triazol-5-yl)methyl]-4-hydroxy-5,6-dihydro-2H-pyran-2-one] — 4.2-fold higher, 3400 nM
- Cc1cc(C)n2nc(CC3=C(O)CC(CCc4ccc(C(C)(C)C#N)c(F)c4)(C4CCCC4)OC3=O)nc2n1 (stereo not drawn) [B(75), 2-(4-{2-[2-Cyclopentyl-5-(5,7-dimethyl-[1,2,4]triazolo[1,5-a]pyrimidin-2-ylmethyl)-4-hydroxy-6-oxo-3,6-dihydro-2H-pyran-2-yl]-ethyl}-2-fluoro-phenyl)-2-methyl-propionitrile] — 270-fold lower, 3 nM
- Cc1cc(C)n2nc(CC3=C(O)CC(CCc4ccc(C5(C#N)CC5)c(F)c4)(C4CCCC4)OC3=O)nc2n1 (stereo not drawn) [B(76), 1-(4-{2-[2-Cyclopentyl-5-(5,7-dimethyl-[1,2,4]triazolo[1,5-a]pyrimidin-2-ylmethyl)-4-hydroxy-6-oxo-3,6-dihydro-2H-pyran-2-yl]-ethyl}-2-fluoro-phenyl)-cyclopropanecarbonitrile] — 800-fold lower, 1 nM
- COc1ccc(CCC2(C3CCCC3)CC(=O)C(Cc3ccccc3)C(=O)O2)cc1 (stereo not drawn) [B(77), 3-benzyl-6-cyclopentyl-6-[2-(4-methoxyphenyl)ethyl]dihydro-2H-pyran-2,4(3H)-dione] — 6.9-fold higher, 5500 nM
- COc1ccc(CCC2(C3CCCC3)CC(=O)C(Cc3ccccc3)C(=O)O2)cc1Cl (stereo not drawn) [B(78), 3-benzyl-6-[2-(3-chloro-4-methoxyphenyl)ethyl]-6-cyclopentyldihydro-2H-pyran-2,4(3H)-dione] — within 1.5-fold, 1000 nM
- C=CCC1C(=O)CC(CCc2ccc(OC)c(Cl)c2)(C2CCCC2)OC1=O (stereo not drawn) [B(79), 3-allyl-6-[2-(3-chloro-4-methoxyphenyl)ethyl]-6-cyclopentyldihydro-2H-pyran-2,4(3H)-dione] — 3-fold higher, 2400 nM
- COc1ccc(CCC2(C3CCCC3)CC(=O)C(Cc3cccnc3)C(=O)O2)cc1Cl (stereo not drawn) [B(80), 6-[2-(3-chloro-4-methoxyphenyl)ethyl]-6-cyclopentyl-3-(pyridin-3-ylmethyl)dihydro-2H-pyran-2,4(3H)-dione] — within 1.5-fold, 560 nM
- COc1ccc(CCC2(C3CCCC3)CC(=O)C(Cc3ccccn3)C(=O)O2)cc1Cl (stereo not drawn) [B(81), 6-[2-(3-chloro-4-methoxyphenyl)ethyl]-6-cyclopentyl-3-(pyridin-2-ylmethyl)dihydro-2H-pyran-2,4(3H)-dione] — 3.3-fold lower, ~240 nM
- COc1ccc(CCC2(C3CCCC3)CC(=O)C(Cc3ccncc3)C(=O)O2)cc1Cl (stereo not drawn) [B(82), 6-[2-(3-chloro-4-methoxyphenyl)ethyl]-6-cyclopentyl-3-(pyridin-4-ylmethyl)dihydro-2H-pyran-2,4(3H)-dione] — within 1.5-fold, 680 nM
- COc1ccc(CCC2(C3CCCC3)CC(=O)C(Cc3cn4cccnc4n3)C(=O)O2)cc1Cl (stereo not drawn) [B(83), 6-[2-(3-chloro-4-methoxyphenyl)ethyl]-6-cyclopentyl-3-(imidazo[1,2-a]pyrimidin-2-ylmethyl)dihydro-2H-pyran-2,4(3H)-dione] — 2.2-fold lower, 360 nM
- COc1ccc(CCC2(C3CCCC3)CC(=O)C(Cc3nc4ccccc4n3C)C(=O)O2)cc1Cl (stereo not drawn) [B(84), 6-[2-(3-chloro-4-methoxyphenyl)ethyl]-6-cyclopentyl-3-[(1-methyl-1H-benzimidazol-2-yl)methyl]dihydro-2H-pyran-2,4(3H)-dione] — 7.3-fold lower, 110 nM
- COc1ccc(CCC2(C3CCCC3)CC(=O)C(Cc3ccc4ccccc4n3)C(=O)O2)cc1Cl (stereo not drawn) [B(85), 6-[2-(3-chloro-4-methoxyphenyl)ethyl]-6-cyclopentyl-3-(quinolin-2-ylmethyl)dihydro-2H-pyran-2,4(3H)-dione] — within 1.5-fold, 740 nM
- COc1ccc(CCC2(C3CCCC3)CC(O)=C(C(=O)Cc3cc(C)no3)C(=O)O2)c(OC)c1 (stereo not drawn) [B(86), 6-Cyclopentyl-6-[2-(2,4-dimethoxy-phenyl)-ethyl]-4-hydroxy-3-[2-(3-methyl-isoxazol-5-yl)-acetyl]-5,6-dihydro-pyran-2-one] — 28-fold higher, 22100 nM
- COc1ccc(CCC2(C3CCCC3)CC(O)=C(C(=O)Cc3ccccn3)C(=O)O2)cc1Cl (stereo not drawn) [B(87), 6-[2-(3-Chloro-4-methoxy-phenyl)-ethyl]-6-cyclopentyl-4-hydroxy-3-(2-pyridin-2-yl-acetyl)-5,6-dihydro-pyran-2-one] — 2.2-fold higher, 1800 nM
- COc1ccc(CCC2(C3CCCC3)CC(O)=C(C(C)=O)C(=O)O2)cc1Cl (stereo not drawn) [B(88), 3-Acetyl-6-[2-(3-chloro-4-methoxy-phenyl)-ethyl]-6-cyclopentyl-4-hydroxy-5,6-dihydro-pyran-2-one] — 6.4-fold higher, 5100 nM
- Cc1csc2nc(CC3=C(O)CC(CCc4ccc(C(F)F)c(F)c4)(C4CCCC4)OC3=O)cc(=O)n12 (stereo not drawn) [B(89), 7-[(6-Cyclopentyl-6-{2-[4-(difluoromethyl)-3-fluorophenyl]ethyl}-4-hydroxy-2-oxo-5,6-dihydro-2H-pyran-3-yl)methyl]-3-methyl-5H-[1,3]thiazolo[3,2-a]pyrimidin-5-one] — 4.3-fold lower, 185 nM
- COc1cc(OC)c(CCC2(C3CCCC3)CC(O)=C(Cc3cn4cccnc4n3)C(=O)O2)cc1Cl (stereo not drawn) [B(90), 6-[2-(5-chloro-2,4-dimethoxyphenyl)ethyl]-6-cyclopentyl-4-hydroxy-3-(imidazo[1,2-a]pyrimidin-2-ylmethyl)-5,6-dihydro-2H-pyran-2-one] — 130-fold lower, 6 nM
- CCc1cc(CCC2(C3CCCC3)CC(=O)C(Cc3nc4nc(C)cc(C)n4n3)C(=O)O2)ccc1N(C)S(C)(=O)=O (stereo not drawn) [B(91), 6N-[4-(2-{2-cyclopentyl-5-[(5,7-dimethyl[1,2,4]triazolo[1,5-a]pyrimidin-2-yl)methyl]-4,6-dioxotetrahydro-2H-pyran-2-yl}ethyl)-2-ethylphenyl]-N-methylmethanesulfonamide] — 80-fold lower, 10 nM

Source: patent US7473790B2 (Pfizer Inc., priority 2003, dated 2009)
